Reference: patent US8143254B2, “Methods for modulating ion channels” (Cornell Research Foundation, Inc., priority 2005, dated 2012)
Where a chain is given by its changes, count along the chain named. “And” between values parts separate entries of the source, which are not always exact repeats. Identical values can stand only once. Values belong to the molecule of their own block, whether it stands above or below them.

Experiments:
Type in all cases: cell-based
Δ1-28 Kv3.4 channels = target: T1, Δ1-28 Kv3.4 channels (Homo sapiens, UniProt Q03721); test: TEVC current-voltage relationship of Δ1-28 Kv3.4 in Xenopus oocytes; details: 1 mM
T1 construct: expressed in transfected cells; host or cells: Xenopus oocytes (cRNA injection)
T1 sequence (Q03721 29-635): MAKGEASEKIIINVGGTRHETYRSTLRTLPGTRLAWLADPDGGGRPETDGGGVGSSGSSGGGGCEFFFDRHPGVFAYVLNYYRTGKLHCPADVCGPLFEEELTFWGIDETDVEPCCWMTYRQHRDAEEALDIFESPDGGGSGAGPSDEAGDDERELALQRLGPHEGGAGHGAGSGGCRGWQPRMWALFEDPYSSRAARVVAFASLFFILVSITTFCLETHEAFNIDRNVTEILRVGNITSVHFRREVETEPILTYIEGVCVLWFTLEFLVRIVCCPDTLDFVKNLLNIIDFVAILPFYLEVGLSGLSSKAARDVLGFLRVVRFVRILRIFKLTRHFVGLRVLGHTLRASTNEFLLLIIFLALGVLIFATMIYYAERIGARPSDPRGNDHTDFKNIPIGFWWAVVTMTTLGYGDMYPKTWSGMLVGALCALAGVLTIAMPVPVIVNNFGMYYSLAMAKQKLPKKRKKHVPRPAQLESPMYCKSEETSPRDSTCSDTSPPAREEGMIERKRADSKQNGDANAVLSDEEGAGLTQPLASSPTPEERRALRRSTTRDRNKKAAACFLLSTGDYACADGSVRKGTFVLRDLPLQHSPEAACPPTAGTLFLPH
Experimental: FIG. 6. Opening and block of Kv3.4 by two didabco compounds show voltage-dependency. Normalized I/V relationship for Δ1-28 Kv3.4 currents in oocytes in the absence (control) or presence as indicated of 1 mM JC279.3a or JC638.2a. Peak currents during 2 s pulses to voltages between −80 and +60 mV (protocol upper left insert) were recorded, before and after drug was washed in during successive 0.1 Hz, 2 s pulses from −80 to 0 mV until equilibrium block or opening was observed. Points are means from n=3-16 oocytes; error bars indicate SEM.
Whole-cell two-electrode voltage-clamp (TEVC) recordings were performed on X laevis oocytes expressing cloned Kv2.1, Kv3.4 or Kv4.2 using a Warner OC-725C amplifier and pClamp9 (Axon Instruments, Foster City, Calif.) software. Oocytes were bathed in a small-volume Warner oocyte bath and viewed with a Fisher dissection microscope. Bath solution for whole-cell oocyte recordings was (in mM): 96 NaCl, 4 KCl, 0.7 MgCl2, 1 CaCl2, 10 HEPES (pH 7.4); whole-cell oocyte TEVC pipettes were of 0.2-2 M resistance when filled with 3 M KCl. Experiments were performed 24-48 hours after cRNA injection. For assessment of current-voltage relationships in the absence or presence of dabco derivatives, oocytes were held at −80 mV, stepped for 2 seconds at voltages between −80 mV and +60 mV in 20 mV steps (Kv2.1) or between −80 and +50 mV in 10 mV steps (Kv3.4), then held for 500 ms at −40 mV before returning to the holding potential. For assessment of block during wash-in of dabco derivatives at a single voltage, oocytes were held at −80 mV, and repetitively stepped to 0 mV for 2 s with an interpulse interval of 10 s or 60 s as indicated. A range of concentrations of dabco or dabco derivatives were washed in via the bath solution during repetitive single-voltage pulses (after an initial period of 5 pulses with control solution to ensure current stabilization) until equilibrium block was achieved, to establish dose-responses. Inhibited currents are compared to the current at the end of 5-pulse control period, thus some bar graphs show ‘control’ current values slightly less than 1, and with an error bar, to show how much currents deviate in the absence of drug. Washout was performed after the highest concentration of blocker was washed in. […]
To investigate the mechanism of Kv channel block or opening by didabco compounds, the current-voltage relationship (I/V curve) of Δ1-28 Kv3.4 channels expressed in Xenopus oocytes was assessed using TEVC recording in the absence and presence of a didabco opener (JC279.3a, the 10 CH2-group didabco from FIG. 3) or a didabco blocker (JC638.2a, the para didabco from FIG. 4).

Kv2.1-K356C = target: T2, Kv2.1-K356C (Rattus norvegicus, UniProt P15387, K360C); test: Cysteine protection experiments, K356C variant of Kv2.1 in oocytes; details: K356C mutant
T2 construct: expressed in transfected cells; host or cells: Xenopus laevis oocytes (cRNA from pGA1)
T2 sequence (P15387 1-857 K360C): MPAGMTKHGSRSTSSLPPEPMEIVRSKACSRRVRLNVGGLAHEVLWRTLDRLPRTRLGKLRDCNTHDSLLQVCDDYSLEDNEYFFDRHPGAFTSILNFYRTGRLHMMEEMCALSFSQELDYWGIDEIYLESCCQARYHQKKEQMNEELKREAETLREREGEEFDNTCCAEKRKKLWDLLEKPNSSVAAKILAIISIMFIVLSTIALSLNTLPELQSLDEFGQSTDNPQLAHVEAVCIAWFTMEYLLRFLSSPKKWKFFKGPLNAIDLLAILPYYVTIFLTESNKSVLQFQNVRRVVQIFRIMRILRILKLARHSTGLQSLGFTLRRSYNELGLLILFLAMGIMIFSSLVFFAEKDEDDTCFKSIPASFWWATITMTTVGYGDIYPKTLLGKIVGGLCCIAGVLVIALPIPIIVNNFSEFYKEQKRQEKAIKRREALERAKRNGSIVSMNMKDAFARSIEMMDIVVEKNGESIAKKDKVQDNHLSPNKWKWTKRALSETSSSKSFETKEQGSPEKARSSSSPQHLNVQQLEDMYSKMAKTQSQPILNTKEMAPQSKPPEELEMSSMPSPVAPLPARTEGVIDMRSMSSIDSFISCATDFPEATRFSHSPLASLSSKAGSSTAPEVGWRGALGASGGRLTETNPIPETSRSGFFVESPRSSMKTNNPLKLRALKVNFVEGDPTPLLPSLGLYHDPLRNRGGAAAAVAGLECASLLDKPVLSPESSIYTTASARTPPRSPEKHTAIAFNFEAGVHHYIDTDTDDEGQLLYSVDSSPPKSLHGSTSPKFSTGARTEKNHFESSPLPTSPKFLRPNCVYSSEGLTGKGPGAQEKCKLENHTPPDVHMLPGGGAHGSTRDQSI
From the text: (§1) Kv2.1 mutants were constructed using the QuickChange Multi Site-Directed Mutagenesis Kit (Stratagene, La Jolla, Calif.). Mutant Kv2.1 genes (in the pGA1 oocyte expression vector for oocyte expression) were sequenced in their entirety to confirm appropriate mutations and check for inadvertent mutations, and then subcloned into a wild-type pGA1 backbone. For oocyte expression, Kv3.4 was in pBF1, Kv4.2 was in pRAT. cRNA transcripts were produced from SacII-linearized (Kv2.1), Mlullinearized (Kv3.4) and Not1-linearized (Kv4.2) DNA templates using the T3 (Kv2.1), SP6 (Kv3.4) and T7 (Kv4.2) mMessage mMachine kits (Ambion, Austin, Tex.). cRNA was quantified by spectrophotometry and its size integrity verified by gel electophoresis. Defolliculated stage V and VI Xenopus laevis oocytes (purchased from Nasco, Grand Island, N.Y.) were injected with 5 ng of cRNA encoding Kv2.1, Kv3.4 or Kv4.2. Chinese Hamster Ovary (CHO) cells were transfected with 0.25 μg Kv2.1 cDNA, 2 μg blank plasmid and 2 μg Green fluorescent Protein in pBOB using Supetfect transfection reagent (Qiagen) 24 hours before whole-cell voltage clamp studies.
Whole-cell two-electrode voltage-clamp (TEVC) recordings were performed on X laevis oocytes expressing cloned Kv2.1, Kv3.4 or Kv4.2 using a Warner OC-725C amplifier and pClamp9 (Axon Instruments, Foster City, Calif.) software. Oocytes were bathed in a small-volume Warner oocyte bath and viewed with a Fisher dissection microscope. Bath solution for whole-cell oocyte recordings was (in mM): 96 NaCl, 4 KCl, 0.7 MgCl2, 1 CaCl2, 10 HEPES (pH 7.4); whole-cell oocyte TEVC pipettes were of 0.2-2 M resistance when filled with 3 M KCl. Experiments were performed 24-48 hours after cRNA injection. For assessment of current-voltage relationships in the absence or presence of dabco derivatives, oocytes were held at −80 mV, stepped for 2 seconds at voltages between −80 mV and +60 mV in 20 mV steps (Kv2.1) or between −80 and +50 mV in 10 mV steps (Kv3.4), then held for 500 ms at −40 mV before returning to the holding potential. For assessment of block during wash-in of dabco derivatives at a single voltage, oocytes were held at −80 mV, and repetitively stepped to 0 mV for 2 s with an interpulse interval of 10 s or 60 s as indicated. A range of concentrations of dabco or dabco derivatives were washed in via the bath solution during repetitive single-voltage pulses (after an initial period of 5 pulses with control solution to ensure current stabilization) until equilibrium block was achieved, to establish dose-responses. Inhibited currents are compared to the current at the end of 5-pulse control period, thus some bar graphs show ‘control’ current values slightly less than 1, and with an error bar, to show how much currents deviate in the absence of drug. Washout was performed after the highest concentration of blocker was washed in. In cases where washout was achieved, only those recordings in which current returned to within 10% of original current level were used for construction of dose-response curves. For cysteine protection experiments using the K356C variant of Kv2.1, a dabco derivative (JC638.2a) was washed in to equilibrium block, followed by wash-in of a solution containing both JC638.2a and MTSET until no further changes in current were seen; following this the solution was washed out with standard bath solution. As controls for this protection analysis, JC638.2a or MTSET were washed in alone until equilibrium block, then washed out.

[1] = target: T3, Kv2.1 channels expressed in CHO cells (Rattus norvegicus, UniProt P15387); test: Whole-cell voltage clamp of CHO cells transfected with Kv2.1; details: 20 mM, 0 mV
T3 construct: expressed in transfected cells; host or cells: CHO cells (transient, co-transfected with GFP plasmid)
T3 sequence (P15387 1-857): T2 sequence (P15387 1-857 K360C) with C360K
From the text: as §1
For whole-cell voltage clamp studies of CHO cells, bath solution was (in mM): 135 NaCl, 5 KCl, 1.2 MgCl2, 5 HEPES, 2.5 CaCl2, and 10 D-glucose, pH 7.4. Pipettes were 3-5 MQ resistance when filled with intracellular solution containing (in mM): 10 NaCl, 117 KCl, 2 MgCl2, 11 HEPES, 11 EGTA, and 1 CaCl2, pH 7.2. For experiments with extracellular drug application, cells were held at −80 mV and subjected to 2 sec test pulses […] every 30 s. Whole-cell patch clamp recordings were performed at 22-25° C. using an IX50 inverted microscope equipped with epifluorescence optics for GFP detection (Olympus), a Multiclamp 700 A Amplifier, a Digidata 1300 Analogue/Digital converter and pClamp9 software (Axon Instruments). Leak and liquid junction potentials (<4 mV) were not compensated for when generating current-voltage relationships. For intracellular drug application, the tip of the recording electrode was first filled with drug-free intracellular solution, the electrode was then back-filled with intracellular solution containing TEA (20 mM), TA279 (5 mM) or JC638.2α (0.5 mM). Cells were held at −80 mV and subjected to 2 sec test pulses from −60 mV to +60 mV in 10 mV increments, followed by a 1 sec tail pulse to −30 mV. After an initial recording which we denoted time 0, a second recording was performed after 5 minutes.
Data analysis: Current-voltage relationships were obtained by measuring peak current during depolarizing pulses. Inhibition constants for DABCO blockers were calculated after generating a dose response curve by fitting with a logistic dose-response function y=A2+[A1−A2/1+(x/x0)^p], where A1 is the maximum response plateau, A2 is the minimum response plateau, x is drug concentrator, x0 is the IC50, and p the Hill slope. Data analysis was performed using CLAMPFIT 9 (Axon Instruments, Foster City, Calif.) and tabulated in Excel 5.0. Graphs were generated using Origin 6.1. Data are expressed as mean±SEM, with n specifying the number of independent experiments. Statistical significance was assessed by one-way ANOVA with p<0.05 being indicative of significance.

SMILES: C(CCCCC[N+]12CCN(CC1)CC2)CCCC[N+]12CCN(CC1)CC2 [JC279.3a, 1,10-[bis(4-aza-1-azoniabicyclo[2.2.2]octanyl)]decane]
block or opening of Δ1-28 Kv3.4 (Δ1-28 Kv3.4 channels): opener
voltage dependence of block or opening of Kv3.4 (Δ1-28 Kv3.4 channels; attenuated at more depolarized voltages): voltage-dependent

current inhibition, administered alone (Kv2.1-K356C): 56±3%
SMILES: C[N+](C)(C)CCSS(C)(=O)=O [MTSET, reference compound]

SMILES: CC[N+](CC)(CC)CC [TEA, tetraethylammonium, reference compound]
block on intracellular application ([1]; after 5 minutes): ~88% and 80%
block on intracellular application ([1]; time 0): ~85% and 70%
